This note sets out measurements from DBAASP.

Structures are written as SMILES. Values after ≈ are worked out from the molar mass of the structure shown.

Some test systems named below: Bacillus cereus; Enterococcus faecalis; Escherichia coli; Leuconostoc lactis; Listeria innocua; Micrococcus luteus; Pasteurella multocida; Streptococcus uberis; Staphylococcus aureus; Bacillus subtilis; Candida albicans; Cryptococcus neoformans; Pseudomonas putida; Saccharomyces cerevisiae; Salmonella typhimurium; Serratia marcescens; Streptococcus mutans; Streptococcus pneumoniae; Bacillus cereus AS1.126; Escherichia coli AS1.349.

What all share (test): ≥ marks a high value that may be exact or a test limit, other limits are often not marked, values filed in µg/mL are converted to µM
In experiment [1] the test system is Bacillus subtilis IFO 3134.
In experiment [2] the test system is Escherichia coli IFO 12734.
The test system of experiment [3] is Pseudomonas aeruginosa IFO 12582.
Experiment [4] relates to Staphylococcus aureus IFO 12732.
Experiment [5] concerns Staphylococcus epidermidis.
Experiment [6] relates to Acinetobacter baumannii ATCC 19606.
Experiment [7] concerns Bordetella bronchiseptica CUN 11844-99.
Experiment [8] relates to Escherichia coli ATCC 25922.
The subject of experiment [9] is Pseudomonas aeruginosa ATCC 27853.
The subject of experiment [10] is Pseudomonas aeruginosa CUN 4158-02.
For experiment [11], the system named is Staphylococcus aureus ATCC 25923.
Experiment [12] relates to Staphylococcus aureus ATCC 43300.
Experiment [13] concerns Staphylococcus aureus CUN 3792-99.
Experiment [14] has as its system Stenotrophomonas maltophilia CUN 3998-00.
In experiment [15] the test system is Enterobacter cloacae CGMCC 1.58.
Experiment [16] relates to Enterococcus faecalis CGMCC 1.595.
Experiment [17] has as its system Enterococcus faecium CGMCC 1.2334.
The subject of experiment [18] is Klebsiella aerogenes CGMCC 1.876.
In experiment [19] the test system is Klebsiella pneumoniae subsp. pneumoniae CGMCC 1.176.
Experiment [20] relates to Lactococcus lactis AS1.1690.
Experiment [21] deals with Pseudomonas aeruginosa CGMCC 1.860.
Experiment [22] concerns Staphylococcus aureus AS1.72.

On to `CC[C@H](C)[C@H](NC(=O)[C@H](C)NC(=O)[C@@H]1CCCN1C(=O)[C@@H](NC(=O)[C@@H](NC(=O)[C@H](Cc1cnc[nH]1)NC(=O)[C@H](C)NC(=O)[C@H](C)NC(=O)[C@@H](NC(=O)[C@H](CCCCN)NC(=O)[C@H](C)NC(=O)[C@H](CC(C)C)NC(=O)[C@@H](NC(=O)CNC(=O)[C@@H](N)Cc1ccccc1)C(C)C)C(C)C)C(C)C)C(C)C)C(=O)N[C@@H](C)C(=O)N[C@@H](CCC(=O)O)C(=O)N[C@@H](Cc1cnc[nH]1)C(=O)N[C@@H](Cc1ccccc1)C(N)=O` [FGVLAKVAAHVVPAIAEHF], for which the MIC (usually the smallest concentration in the dilution series that meets the test's criterion for growth inhibition) in the experiment on Bacillus cereus was at least 50.6 µM; in experiment [1] it was at least 64 µM; in the experiment on Enterococcus faecalis, at least 50.6 µM; in [2], at least 64 µM; in the experiment on Escherichia coli, above 50.6 µM; in the experiment with Leuconostoc lactis, at least 50.6 µM. Further, the MIC against Listeria innocua is at least 50.6 µM; in the experiment with Micrococcus luteus it was at least 50.6 µM; in the experiment with Pasteurella multocida, at least 50.6 µM; in experiment [3], at least 64 µM; in experiment [4], at least 64 µM; in [5], at least 50.6 µM. For the same molecule, the MIC in the experiment with Streptococcus uberis was at least 50.6 µM.
For the molecule `NCCCC[C@H](NC(=O)CNC(=O)[C@H](CCCCN)NC(=O)[C@H](Cc1ccccc1)NC(=O)[C@H](CCCCN)NC(=O)[C@H](Cc1c[nH]c2ccccc12)NC(=O)[C@H](CCCN=C(N)N)NC(=O)[C@H](Cc1ccccc1)NC(=O)[C@H](CCCN=C(N)N)NC(=O)[C@H](CCCN=C(N)N)NC(=O)[C@H](Cc1ccc(O)cc1)NC(=O)[C@H](CCCCN)NC(=O)[C@H](CCCCN)NC(=O)[C@H](CS)NC(=O)CN)C(=O)N[C@@H](Cc1ccccc1)C(=O)N[C@@H](Cc1c[nH]c2ccccc12)C(=O)N[C@@H](Cc1ccccc1)C(=O)N[C@@H](Cc1c[nH]c2ccccc12)C(=O)NCC(=O)NCC(N)=O` [GCKKYRRFRWKFKGKFWFWGG], the MIC is 23.1 µM (≈ 64 µg/mL) in experiment [6]; 11.6 µM (≈ 32 µg/mL) in experiment [7]; 46.2 µM (≈ 128 µg/mL) in experiment [8]; 46.2 µM (≈ 128 µg/mL) in experiment [9]; at least 92.4 µM in experiment [10]; 46.2 µM (≈ 128 µg/mL) in [11]. For the same molecule, the MIC is 46.2 µM (≈ 128 µg/mL) in [12], at least 370 µM in experiment [13] and at least 185 µM in [14].
For `CC[C@H](C)[C@H](N=C(O)[C@H](C)N=C(O)[C@H](C)N=C(O)[C@@H](N=C(O)[C@@H](N=C(O)[C@H](Cc1cnc[nH]1)N=C(O)[C@H](C)N=C(O)[C@H](C)N=C(O)[C@@H](N=C(O)[C@H](CCCCN)N=C(O)[C@H](C)N=C(O)[C@H](CC(C)C)N=C(O)[C@@H](N=C(O)CN=C(O)[C@H](Cc1ccccc1)N=C(O)[C@H](CC(C)C)N=C(O)CN)C(C)C)C(C)C)C(C)C)C(C)C)C(O)=N[C@@H](C)C(O)=N[C@@H](CCC(=O)O)C(O)=N[C@@H](Cc1cnc[nH]1)C(O)=N[C@@H](Cc1ccccc1)C(=N)O` [GLFGVLAKVAAHVVAAIAEHF], the MIC is at least 47.2 µM against Bacillus cereus; 8 µM (≈ 17 µg/mL) in experiment [1]; at least 47.2 µM in the experiment on Enterococcus faecalis; at least 64 µM in experiment [2]; above 47.2 µM in the experiment on Escherichia coli; 5.66 µM (≈ 12 µg/mL) against Leuconostoc lactis. For the same molecule, the MIC is at least 47.2 µM in the experiment with Listeria innocua; 23.6 µM (≈ 50 µg/mL) in the experiment on Micrococcus luteus; at least 47.2 µM against Pasteurella multocida; at least 64 µM in experiment [3]; 4 µM (≈ 8.48 µg/mL) in experiment [4]; 33.3 µM (≈ 70.7 µg/mL) in the experiment on Staphylococcus aureus. Further, the MIC in [5] is at least 47.2 µM; in the experiment on Streptococcus uberis, 23.6 µM (≈ 50 µg/mL).
In the case of `CC(C)C[C@H](NC(=O)[C@H](Cc1c[nH]c2ccccc12)NC(=O)[C@H](CC(C)C)NC(=O)[C@H](CCCCN)NC(=O)[C@H](CCC(N)=O)NC(=O)[C@H](CCCCN)NC(=O)[C@H](CS)NC(=O)[C@H](CCCCN)NC(=O)[C@H](CC(C)C)NC(=O)[C@H](CCCCN)NC(=O)[C@H](Cc1ccccc1)NC(=O)[C@H](CCCNC(=N)N)NC(=O)[C@H](CCCNC(=N)N)NC(=O)[C@H](Cc1ccccc1)NC(=O)[C@H](CCCCN)NC(=O)[C@H](CCCCN)NC(=O)[C@H](CS)NC(=O)CN)C(=O)N[C@@H](Cc1c[nH]c2ccccc12)C(=O)N[C@@H](CS)C(=O)NCC(=O)O` [GCKKFRRFKLKCKQKLWLWCG], the MIC is 24.1 µM (≈ 64 µg/mL) in experiment [6]; 6.02 µM (≈ 16 µg/mL) in experiment [7]; 385 µM (≈ 1020 µg/mL) in experiment [8]; 96.3 µM (≈ 256 µg/mL) in experiment [9]; at least 96.3 µM in [10]; 385 µM (≈ 1020 µg/mL) in experiment [11]. In addition, the MIC in experiment [12] was 24.1 µM (≈ 64 µg/mL); in experiment [13] it was 12 µM (≈ 32 µg/mL); in experiment [14] it was at least 385 µM.
`CC(C)C[C@H](NC(=O)[C@H](CC(C)C)NC(=O)[C@H](CCCN=C(N)N)NC(=O)[C@H](Cc1cnc[nH]1)NC(=O)[C@@H](NC(=O)[C@H](CCCN=C(N)N)NC(=O)CNC(=O)[C@@H](NC(=O)[C@@H]1CCCN1C(=O)[C@H](Cc1ccccc1)NC(=O)[C@H](CCC(N)=O)NC(=O)[C@H](CC(C)C)NC(=O)CNC(=O)[C@H](C)NC(=O)[C@@H](N)CCCN=C(N)N)C(C)C)C(C)C)C(=O)O` [RAGLQFPVGRVHRLL]: the MIC with Bacillus subtilis is at least 37.2 µM; against Candida albicans, above 149 µM; with Cryptococcus neoformans it was at least 74.5 µM; against Escherichia coli, 37.2 µM (≈ 64 µg/mL); in the experiment with Pseudomonas putida, at least 37.2 µM; with Saccharomyces cerevisiae, at least 149 µM. The MIC with Salmonella typhimurium was 18.6 µM (≈ 32 µg/mL); against Serratia marcescens it was at least 37.2 µM; against Staphylococcus aureus it was 74.5 µM (≈ 128 µg/mL); with Streptococcus mutans it was at least 37.2 µM; against Streptococcus pneumoniae, at least 74.5 µM.
Take `CC[C@H](C)[C@H](N)C(=O)N[C@@H](CCCCN)C(=O)N[C@@H](CCCCN)C(=O)N[C@H](C(=O)N[C@@H](CC(C)C)C(=O)N[C@@H](CO)C(=O)N[C@@H](CCCCN)C(=O)N[C@H](C(=O)N[C@@H](CCCCN)C(=O)N[C@@H](CCCCN)C(=O)N[C@@H](CC(C)C)C(=O)N[C@@H](CC(C)C)C(N)=O)[C@@H](C)CC)[C@@H](C)CC` [IKKILSKIKKLL]: the MIC came to 3.12 µM (≈ 4.44 µg/mL) against Bacillus cereus AS1.126; 6.25 µM (≈ 8.9 µg/mL) in experiment [15]; 6.25 µM (≈ 8.9 µg/mL) in [16]; 6.25 µM (≈ 8.9 µg/mL) in experiment [17]; 3.12 µM (≈ 4.44 µg/mL) in the experiment on Escherichia coli AS1.349; 6.25 µM (≈ 8.9 µg/mL) in experiment [18]. In addition, the MIC in experiment [19] turned out to be 6.25 µM (≈ 8.9 µg/mL); in experiment [20], 3.12 µM (≈ 4.44 µg/mL); in [21], 3.12 µM (≈ 4.44 µg/mL); in experiment [22] it was 3.12 µM (≈ 4.44 µg/mL).
